Source: patent US6852737B2 (Recordati Ireland Limited, priority 2001, dated 2005)
Several values for one entry are separate records, joined by “and”; a condition that tells them apart may be missing. Identical values can stand only once. Entries after “also recorded” stand apart in the source; their conditions may differ. Counter-ions that a name gives are not always drawn. Marks after values point to notes of the source that are not given here.

Columns and labels:
[1] = Hygroscopicity (DVS analysis); format: physicochemical; conditions: 25° C.
Protocol: The hygroscopicity of both crystalline Forms (I) and (II) was measured with DVS analysis by means of a water absorption analyzer (SURFACE MEASUREMENT SYSTEM, Marion, Buckinghamshire, UK) according to the following working conditions: […]

[2] = Bioavailability of crystalline forms in dog; format: in vivo, Beagle dogs
Protocol: A study was carried out on six Beagle dogs to evaluate the bioavailability of crystalline Forms (I) and (II).
Blood samples were taken at given times and plasma concentrations of lercanidipine were determined with a stereoselective analytical method HPLC-MS/MS, according to the following working conditions;
Lercanidipine was extracted from dog plasma by means of a liquid-liquid extraction with a mixture of n-hexane and ethyl ether. The dry residue of the organic phase was taken up with a mixture of methanol and water and a liquid-phase chromatographic separation (LC) was carried out; the two enantiomers of lercanidipine were separated on a CHIROBIOTIC V column (Vancomycin) (particle size […], column size 150×4.6 mm (ASTEC, NJ, USA)) and were detected with a mass spectrometer (MS/MS) by using an electrospray technique.
The analytical method was validated in a concentration range between 0.1 and 20 ng/ml of plasma for both enantiomers. The method has shown to be specific with an accuracy of 15%. The average concentrations of lercanidipine in the tables represent the sum of both enantiomers.

[3] = Stability of crystalline forms; format: physicochemical; conditions: hydrochloride
[4] = Relative bioavailability in man; format: in vivo; conditions: for bioequivalence to Form I / AUC0−t, geom. least square mean / Cmax, geom. least square mean / tmax, median: 10 mg tablet; for bioequivalence to Form I / AUC0−t, geom. least square mean / Cmax, geom. least square mean / tmax, median / time of maximum concentration (tmax) compared to the other crystalline form: hydrochloride; for AUC0−t, geom. least square mean / Cmax, geom. least square mean / tmax, median / time of maximum concentration (tmax) compared to the other crystalline form: single dose; for AUC0−t, geom. least square mean: 16 volunteers
Protocol: Blood samples were taken at 15 points from time 0 to 24 h post-dosing and plasma concentrations of lercanidipine were determined with a stereoselective analytical method HPLC-MS/MS as described in Example 19a, as validated for man at the same concentration intervals.

[5] = test system: isolated rat aorta; conditions: drug removed from the environment of the aortic tissue for 6 hours; cited from earlier work
[6] = oral administration; cited from earlier work
[7] = 0 h, Mean (dog 2 not included), oral 3 mg/kg
[8] = 0.5 h, Dog 1, oral 3 mg/kg, hydrochloride, 3 mg/kg
[9] = 0.5 h, Dog 3, oral 3 mg/kg, hydrochloride, 3 mg/kg
[10] = 0.5 h, Mean (dog 2 not included), oral 3 mg/kg, hydrochloride, 3 mg/kg
[11] = 1 h, Dog 1, oral 3 mg/kg, hydrochloride, 3 mg/kg
[12] = 1 h, Dog 3, oral 3 mg/kg, hydrochloride, 3 mg/kg
[13] = 1 h, Dog 4, oral 3 mg/kg, hydrochloride, 3 mg/kg
[14] = 1 h, Dog 5, oral 3 mg/kg, hydrochloride, 3 mg/kg
[15] = 1.5 h, Dog 4, oral 3 mg/kg, hydrochloride, 3 mg/kg
[16] = 1.5 h, Dog 6, oral 3 mg/kg, hydrochloride, 3 mg/kg
[17] = 6 h (last sampling time), Mean (dog 2 not included), oral 3 mg/kg, hydrochloride, 3 mg/kg
[18] = Dog 2, oral 3 mg/kg, hydrochloride, 3 mg/kg
[19] = Dog 3, oral 3 mg/kg, hydrochloride, 3 mg/kg
[20] = Dog 4, oral 3 mg/kg, hydrochloride, 3 mg/kg

SMILES: COC(=O)C1=C(C)NC(C)=C(C(=O)OC(C)(C)CN(C)CCC(c2ccccc2)c2ccccc2)C1c1cccc([N+](=O)[O-])c1 (single isomer, unassigned) [Form (II), lercanidipine hydrochloride]
- mass variation ([1]; whole RH range tested (0-95%)): < 0.05%
- concentration in plasma of lercanidipine (S + R) ([2]; 0 h, Dog 1, oral 3 mg/kg): 0.00 ng/mL
- concentration in plasma of lercanidipine (S + R) ([2]; 0 h, Dog 2, oral 3 mg/kg): 0.00 ng/mL
- concentration in plasma of lercanidipine (S + R) ([2]; 0 h, Dog 3, oral 3 mg/kg): 0.00 ng/mL
- concentration in plasma of lercanidipine (S + R) ([2]; 0 h, Dog 4, oral 3 mg/kg): 0.00 ng/mL
- concentration in plasma of lercanidipine (S + R) ([2]; 0 h, Dog 5, oral 3 mg/kg): 0.00 ng/mL
- concentration in plasma of lercanidipine (S + R) ([2]; 0 h, Dog 6, oral 3 mg/kg): 0.00 ng/mL
- concentration in plasma of lercanidipine (S + R) [2, 7]: 0.00 ng/mL
- concentration in plasma of lercanidipine (S + R) [2, 8]: 0.00 ng/mL
- concentration in plasma of lercanidipine (S + R) [2, 9]: 6.99 ng/mL
- concentration in plasma of lercanidipine (S + R) ([2]; 0.5 h, Dog 4, oral 3 mg/kg): 0.00 ng/mL
- concentration in plasma of lercanidipine (S + R) ([2]; 0.5 h, Dog 5, oral 3 mg/kg): 0.00 ng/mL
- concentration in plasma of lercanidipine (S + R) ([2]; 0.5 h, Dog 6, oral 3 mg/kg): 0.00 ng/mL
- concentration in plasma of lercanidipine (S + R) [2, 10]: 1.40 ng/mL
- concentration in plasma of lercanidipine (S + R) [2, 11]: 0.00 ng/mL
- concentration in plasma of lercanidipine (S + R) [2, 12]: 16.61 ng/mL
- concentration in plasma of lercanidipine (S + R) [2, 13]: 5.50 ng/mL
- concentration in plasma of lercanidipine (S + R) [2, 14]: 3.28 ng/mL
- concentration in plasma of lercanidipine (S + R) ([2]; 1 h, Dog 6, oral 3 mg/kg): 0.00 ng/mL
- concentration in plasma of lercanidipine (S + R) ([2]; 1.5 h, Dog 1, oral 3 mg/kg, hydrochloride, 3 mg/kg): 0.23 ng/mL
- concentration in plasma of lercanidipine (S + R) [2, 15]: 35.43 ng/mL
- concentration in plasma of lercanidipine (S + R) [2, 16]: 3.49 ng/mL
- concentration in plasma of lercanidipine (S + R) ([2]; 2 h, Dog 1, oral 3 mg/kg, hydrochloride, 3 mg/kg): 7.63 ng/mL
- concentration in plasma of lercanidipine (S + R) ([2]; 3 h, Dog 4, oral 3 mg/kg, hydrochloride, 3 mg/kg): 28.36 ng/mL
- concentration in plasma of lercanidipine (S + R) ([2]; 3 h, Dog 5, oral 3 mg/kg, hydrochloride, 3 mg/kg): 40.57 ng/mL
- concentration in plasma of lercanidipine (S + R) ([2]; 3 h, Dog 6, oral 3 mg/kg, hydrochloride, 3 mg/kg): 14.10 ng/mL
- concentration in plasma of lercanidipine (S + R) ([2]; 4 h, Dog 3, oral 3 mg/kg, hydrochloride, 3 mg/kg): 14.10 ng/mL
- concentration in plasma of lercanidipine (S + R) ([2]; 4 h, Dog 5, oral 3 mg/kg, hydrochloride, 3 mg/kg): 23.66 ng/mL
- concentration in plasma of lercanidipine (S + R) [2, 17]: 10.9 ± 6.8 ng/mL
- concentration in plasma of lercanidipine (S + R) ([2]; 6 h, Dog 2, oral 3 mg/kg, hydrochloride, 3 mg/kg): 4.50 ng/mL
- Tmax [2, 18]: 1.50 h
- Cmax [2, 19]: 19.78 ng/mL
- Cmax [2, 20]: 52.64 ng/mL
- Cmax ([2]; Dog 6, oral 3 mg/kg, hydrochloride, 3 mg/kg): 18.56 ng/mL
- stability [3]: good stability; also recorded: stable
- bioequivalence to Form I [4]: not bioequivalent
- bioequivalence to Form I ([4]; listed as Form II): non equivalent
- AUC0−t, geom. least square mean [4]: 10.36 ng·h/mL
- Cmax, geom. least square mean [4]: 3.22 ng/mL
- tmax, median [4]: 2.50* h
- tmax Point Estimate (T/R), median difference ([4]; T = Form (II) tablet, R = Form (I) tablet (Zanedip 10 mg)): 0.75** h
- time of maximum concentration (tmax) compared to the other crystalline form [4]: delayed

SMILES: COC(=O)C1=C(C)NC(C)=C(C(=O)OC(C)(C)CN(C)CCC(c2ccccc2)c2ccccc2)C1c1cccc([N+](=O)[O-])c1 (stereo not drawn) [Lercanidipine, methyl 1,1,N-trimethyl-N-(3,3-diphenylpropyl)-2-aminoethyl 1,4-dihydro-2,6-dimethyl-4-(3-nitrophenyl)pyridine-3,5-dicarboxylate]
- response to high K+ after the drug has been removed [5]: attenuated
- time of peak plasma levels following dosing [6]: 2 to 3 h

SMILES: COC(=O)C1=C(C)NC(C)=C(C(=O)OC(C)(C)CN(C)CCC(c2ccccc2)c2ccccc2)C1c1cccc([N+](=O)[O-])c1 (single isomer, unassigned) [Form (I), lercanidipine hydrochloride]
- mass change ([1]; 0% RH): −0.3%
- mass change ([1]; 95% RH): +0.15%
- concentration in plasma of lercanidipine (S + R) ([2]; 0 h, Dog 1, oral 3 mg/kg): 0.00 ng/mL
- concentration in plasma of lercanidipine (S + R) ([2]; 0 h, Dog 2, oral 3 mg/kg): 0.00 ng/mL
- concentration in plasma of lercanidipine (S + R) ([2]; 0 h, Dog 3, oral 3 mg/kg): 0.00 ng/mL
- concentration in plasma of lercanidipine (S + R) ([2]; 0 h, Dog 4, oral 3 mg/kg): 0.00 ng/mL
- concentration in plasma of lercanidipine (S + R) ([2]; 0 h, Dog 5, oral 3 mg/kg): 0.00 ng/mL
- concentration in plasma of lercanidipine (S + R) ([2]; 0 h, Dog 6, oral 3 mg/kg): 0.00 ng/mL
- concentration in plasma of lercanidipine (S + R) [2, 7]: 0.00 ng/mL
- concentration in plasma of lercanidipine (S + R) [2, 8]: 0.1 ng/mL
- concentration in plasma of lercanidipine (S + R) ([2]; 0.5 h, Dog 2, oral 3 mg/kg, hydrochloride, 3 mg/kg): 0.20 ng/mL
- concentration in plasma of lercanidipine (S + R) [2, 9]: 0.00 ng/mL
- concentration in plasma of lercanidipine (S + R) ([2]; 0.5 h, Dog 4, oral 3 mg/kg): 0.00 ng/mL
- concentration in plasma of lercanidipine (S + R) ([2]; 0.5 h, Dog 5, oral 3 mg/kg): 0.00 ng/mL
- concentration in plasma of lercanidipine (S + R) ([2]; 0.5 h, Dog 6, oral 3 mg/kg): 0.00 ng/mL
- concentration in plasma of lercanidipine (S + R) [2, 10]: 0.00 ng/mL
- concentration in plasma of lercanidipine (S + R) [2, 11]: 0.59 ng/mL
- concentration in plasma of lercanidipine (S + R) ([2]; 1 h, Dog 2, oral 3 mg/kg, hydrochloride, 3 mg/kg): 0.29 ng/mL
- concentration in plasma of lercanidipine (S + R) [2, 12]: 0.00 ng/mL
- concentration in plasma of lercanidipine (S + R) [2, 13]: 0.00 ng/mL
- concentration in plasma of lercanidipine (S + R) [2, 14]: 0.00 ng/mL
- concentration in plasma of lercanidipine (S + R) ([2]; 1 h, Dog 6, oral 3 mg/kg): 0.00 ng/mL
- concentration in plasma of lercanidipine (S + R) ([2]; 1 h, Mean (dog 2 not included), oral 3 mg/kg, hydrochloride, 3 mg/kg): 0.12 ng/mL
- concentration in plasma of lercanidipine (S + R) ([2]; 1.5 h, Dog 3, oral 3 mg/kg, hydrochloride, 3 mg/kg): 0.32 ng/mL
- concentration in plasma of lercanidipine (S + R) [2, 15]: 0.00 ng/mL
- concentration in plasma of lercanidipine (S + R) [2, 16]: 0.00 ng/mL
- concentration in plasma of lercanidipine (S + R) ([2]; 1.5 h, Mean (dog 2 not included), oral 3 mg/kg, hydrochloride, 3 mg/kg): 0.70 ng/mL
- concentration in plasma of lercanidipine (S + R) ([2]; 2 h, Dog 3, oral 3 mg/kg, hydrochloride, 3 mg/kg): 0.94 ng/mL
- concentration in plasma of lercanidipine (S + R) ([2]; 2 h, Dog 4, oral 3 mg/kg, hydrochloride, 3 mg/kg): 0.35 ng/mL
- concentration in plasma of lercanidipine (S + R) ([2]; 2 h, Dog 6, oral 3 mg/kg, hydrochloride, 3 mg/kg): 0.28 ng/mL
- concentration in plasma of lercanidipine (S + R) ([2]; 3 h, Dog 3, oral 3 mg/kg, hydrochloride, 3 mg/kg): 0.92 ng/mL
- concentration in plasma of lercanidipine (S + R) [2, 17]: 8.5 ± 6.5 ng/mL and 8.50 ng/mL
- concentration in plasma of lercanidipine (S + R) ([2]; 6 h, Dog 1, oral 3 mg/kg, hydrochloride, 3 mg/kg): 0.80 ng/mL
- concentration in plasma of lercanidipine (S + R) ([2]; 6 h, Dog 5, oral 3 mg/kg, hydrochloride, 3 mg/kg): 9.73 ng/mL
- concentration in plasma of lercanidipine (S + R) ([2]; 6 h, Dog 6, oral 3 mg/kg, hydrochloride, 3 mg/kg): 17.83 ng/mL
- Tmax ([2]; Dog 1, oral 3 mg/kg, hydrochloride, 3 mg/kg): 2.00 h
- Tmax [2, 18]: 4.00 h
- Tmax [2, 19]: 6.00 h
- Tmax [2, 20]: 3.00 h
- Tmax ([2]; Dog 5, oral 3 mg/kg, hydrochloride, 3 mg/kg): 3.00 h
- Tmax ([2]; Mean (n = 5, dog 2 not included), oral 3 mg/kg, hydrochloride, 3 mg/kg): 4.00 h
- stability [3]: good stability; also recorded: stable
- AUC0−t, geom. least square mean [4]: 8.82 ng·h/mL
- Cmax, geom. least square mean [4]: 3.18 ng/mL
- tmax, median [4]: 1.50* h
- time of maximum concentration (tmax) compared to the other crystalline form [4]: shorter time
